For experiment [1], the system named is MccB. The experiment is described as follows: PNP-coupled Michaelis–Menten kinetics of MccB. To be noted: wild-type MccB.
In experiment [2] the test system is wild type MccB. The experiment is described as follows: Competition FP binding assay, wild type MccB, fMccA-FITC probe. On the set-up: species or system E. coli. As to conditions: even at concentrations greater than 5 mM.
Experiment [3] has as its system YejABEF importer. To be noted: 4 vs the peptide lacking the N-formyl moiety 3; cited from earlier work.

Ends that are not written are not given here. Peptide text beside a SMILES is read from it. * marks the point of attachment. X1 = Nc1ncnc2c1ncn2[C@@H]1O[C@H](COP(=O)(O)NC(=O)[C@H](CC(=O)O)N*)[C@@H](O)[C@H]1O; For = O=C*

Regarding MRTGNAN [compound 1], the “substrate inhibition of MccB” value in experiment [1] was “but not with the desformyl 1 peptide”. Further, in experiment [2], the “displacement of bound FITC-labeled N-formylated 2” value is “could not displace”.

Consider `CSCC[C@H](NC=O)C(=O)N[C@@H](CCCNC(=N)N)C(=O)N[C@H](C(=O)NCC(=O)N[C@@H](CC(N)=O)C(=O)N[C@@H](C)C(=O)N[C@@H](CC(=O)O)C(=O)NP(=O)(O)OC[C@H]1O[C@@H](n2cnc3c(N)ncnc32)[C@H](O)[C@@H]1O)[C@@H](C)O` [compound 4] (For-MRTGNA-X1), for which the “substrate quality for YejABEF importer” value in experiment [3] is given as “significantly better substrate”.
